Experimental data reported in patent publication US8691764B2, “Inhibitors of NF-κB activity” (The Research Foundation for the State University of New York, priority 2007, dated 2014).

What was measured:
annexin 1 [1] = test: Induction of annexin 1 in HT-29 cells, Western blot; format: cell-based, human
Description: (§1) The human pancreatic cancer cell line, BxPC-3, or the colon cancer cell line HT-29, both from ATCC (Manassas, Va.) were maintained and grown in RPMI 1640 or McCoy's 5A medium (Cellgro) supplemented with 10% fetal bovine serum (HyClone) and 1% penicillin/streptomycin (Cellgro) in a humidified incubator at 37° C. and 5% CO2.
For the study of induction of annexin 1 by anti-inflammatory agents, the cells were incubated with either NO-ASA or Dex for 3 h. The cell fractions were obtained as described by Andrews and Faller (N. C. Andrews and D. V. Faller, Nucleic Acids Res. 19:2499 (1991)) with modification. Briefly, the cells were pelleted after treatment and washed three times with PBS. The cell pellets were resuspended in ice cold buffer A (10 mM HEPES, pH 7.9, 10 mM KCl, 1.5 mM MgCI2, 0.5 mM DTT, 0.5 mM PMSF) with protease inhibitor cocktail (Sigma) and incubated on ice for 15 min with occasional mixing by gently tapping the tube. The cell lysates were centrifuged up to 5000 rpm for three times. The supernatants were collected as cytoplasmic extracts. Nuclear pellets were washed with buffer A and resuspended in buffer C (20 mM HEPES, pH 7.9, 450 mM NaCl, 1.5 mM MgCI2, 0.2 mM EDTA, 0.5 mM DTT, 0.5 mM PMSF, 25% Glycerol) with protease inhibitor cocktail (Sigma) and incubated on ice for 30 min with occasional mixing to extract nuclear proteins. […]

annexin 1 [2] = test: Induction of annexin 1 in BxPC-3 cells, Western blot of nuclear and cytoplasmic extracts; format: cell-based, human
Description: as §1
The cell fractions were obtained as described by Andrews and Faller (N. C. Andrews and D. V. Faller, Nucleic Acids Res. 19:2499 (1991)) with modification. Briefly, the cells were pelleted after treatment and washed three times with PBS. The cell pellets were resuspended in ice cold buffer A (10 mM HEPES, pH 7.9, 10 mM KCl, 1.5 mM MgCI2, 0.5 mM DTT, 0.5 mM PMSF) with protease inhibitor cocktail (Sigma) and incubated on ice for 15 min with occasional mixing by gently tapping the tube. The cell lysates were centrifuged up to 5000 rpm for three times. The supernatants were collected as cytoplasmic extracts. Nuclear pellets were washed with buffer A and resuspended in buffer C (20 mM HEPES, pH 7.9, 450 mM NaCl, 1.5 mM MgCI2, 0.2 mM EDTA, 0.5 mM DTT, 0.5 mM PMSF, 25% Glycerol) with protease inhibitor cocktail (Sigma) and incubated on ice for 30 min with occasional mixing to extract nuclear proteins. Nuclear extracts were cleared by centrifugation (14,800 rpm for 10 min) and the supernatants were collected as nuclear extracts.
For Western blotting, the proteins from both cytoplasmic extracts and nuclear extracts were separated by SDS-polyacrylamide gel electrophoresis and transferred onto PVDF membranes (Millipore). The membranes were blocked in 5% nonfat dry milk-TBS-T (20 mM Tris-HCl, pH 7.5, 500 mM NaCl. 0.3% Tween 20) at room temperature (RT) for an hour and probed with anti-annexin 1, c-IAP-1, c-IAP-2, and TRAF-1 (Santa Cruz Biotechnology, Inc. CA), and anti-Bcl-2 antibodies (Cell Signaling Technology), in 5% nonfat dry milk-TBS-T at 4° C. overnight. The blots were washed three times with TBS-T for 5 min each wash and incubated with horseradish peroxidase-conjugated secondary antibody (Santa Cruz) in 5% nonfat dry milk-TBS-T at RT for an hour. After five washes with TBS-T, the blots were developed with the enhanced chemiluminescence system (ECL™ Western Blotting System, Amersham Biosciences) and exposed to x-ray film according to the manufacturer's instructions. Protein loading was normalized using anti-β-actin antibodies (Santa Cruz Biotechnology, Inc).

NF-κB = NF-κB activity ELISA, HT-29 cells; format: cell-based, human; conditions: 3 h
annexin 1 [3] = test: Annexin 1 levels in small intestine epithelial cells of treated Min and wild-type mice; format: in vivo; conditions: NO-ASA 100 mg/kg or Dex 10 mg/kg daily for 7 days
Description: To assess whether these changes occur in vivo, the inventors studied isolated small intestine epithelial cells from Min mice and the corresponding wild type mice C57BL/6J (of which the Min mice are a congenic derivative) treated with NO-ASA 100 mg/kg or Dex 10 mg/kg daily for 7 days. Min (multiple intestinal neoplasia), a mutant allele of the murine APC (adenomatous polyposis coli) locus, encodes a nonsense mutation at codon 850. Heterozygous Min mutants spontaneously develop tumors in the intestine and represent a model of intestinal carcinogenesis (M. Lipkin et al., Ann. N.Y. Acad. Sci. 889:14-19 (1999); A. Moser, H. Pitot, W. Dove, Science 247:322-324 (1990)). The levels of annexin 1 were increased in both Min and wild-type mice treated with either NO-ASA or Dex (FIG. 7A and FIG. 8A). The induction of annexin 1 by NO-ASA or Dex was accompanied by the inhibition of NF-κB activity (FIGS. 7B and 8B).
A mouse model of multiple intestinal neoplasia, the Min mice, and the congenic parent wild-type mice were used to test the in vivo action of NO-ASA in the induction of annexin 1. Both wild-type and Min mice were treated for 7 days with vehicle or NO-ASA 100 mg/kg. After 7 days of treatment, the mice were sacrificed and the epithelial cells were evaluated as in Example 6 by confocal microscopy.

nitric oxide-donating aspirin [NO-ASA]
expression of annexin 1 (annexin 1 [1]): induced
time of maximal annexin 1 levels in the cytoplasm (annexin 1 [2]; cytoplasm): 3 h
expression of annexin 1 (annexin 1 [2]; nuclear and cytoplasmic extracts): induced
time of peak annexin 1 levels in the nucleus (annexin 1 [2]; nucleus): 3 h
NF-κB activity (NF-κB): inhibited NF-κB activity in a concentration-dependent manner
levels of annexin 1 (annexin 1 [3]; Min mice): increased
levels of annexin 1 (annexin 1 [3]; wild-type mice): increased
